target: T1, GST-ALK5 (Homo sapiens, UniProt P36897); experiment: In-vitro (enzyme) kinase assay, 384-well flashplate, GST-SMAD2 substrate; format: biochemical; conditions: 31.2 nM GST-ALK5, 439 nM GST-SMAD2, 3 mM ATP, 30° C., 45 min
T1 sequence (P36897 34-503): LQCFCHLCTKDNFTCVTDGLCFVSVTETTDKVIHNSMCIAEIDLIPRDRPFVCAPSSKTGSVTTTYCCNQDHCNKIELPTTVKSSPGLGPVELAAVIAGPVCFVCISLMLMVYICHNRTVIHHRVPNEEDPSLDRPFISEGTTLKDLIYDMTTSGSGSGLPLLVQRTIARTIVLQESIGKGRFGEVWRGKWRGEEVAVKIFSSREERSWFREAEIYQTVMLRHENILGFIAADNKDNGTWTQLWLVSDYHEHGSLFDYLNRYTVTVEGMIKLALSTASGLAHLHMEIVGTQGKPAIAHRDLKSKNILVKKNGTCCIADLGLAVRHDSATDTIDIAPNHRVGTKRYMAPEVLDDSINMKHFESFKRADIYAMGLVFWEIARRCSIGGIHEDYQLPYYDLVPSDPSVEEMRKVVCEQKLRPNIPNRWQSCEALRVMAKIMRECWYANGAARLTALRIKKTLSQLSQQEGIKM
Method: In-Vitro (Enzyme) Assay for Determination of the Efficacy of Inhibitors of the Inhibition of TGF-Beta-Mediated Effects
The kinase assay was carried out as 384-well flashplate assay. 31.2 nM of GST-ALK5, 439 nM of GST-SMAD2 and 3 mM of ATP (with 0.3 μCi of ^33P-ATP/well) were incubated in a total volume of 35 μl (20 mM of HEPES, 10 mM of MgCl2, 5 mM of MnCl2, 1 mM of DTT, 0.1% of BSA, pH 7.4) without or with test substance (5-10 concentrations) at 30° C. for 45 min. The reaction was stopped using 25 μl of 200 mM EDTA solution, filtered with suction at room temperature after 30 min, and the wells were washed with 3 times 100 μl of 0.9% NaCl solution. Radioactivity was measured in the TopCount. The IC50 values were calculated using RS1 (Table 1). Above and below, all temperatures were indicated in ° C.

IC50 [nM]	Structure (SMILES)
< 100	NC(=O)c1sc2nc(OCCN3CCCC3=O)nc(-c3cccc(Cl)c3)c2c1N [No 48, 5-Amino-4-(3-chloro-phenyl)-2-[2-(2-oxo-pyrrolidin-1-yl)-ethoxy]-thieno[2,3-d]pyrimidine-6-carboxylic acid amide]
> 1000	NC(=O)c1sc2nc(OCC3CC3)nc(-c3cc4ccccc4s3)c2c1N [No 2]
100 to 500	NC(=O)c1sc2nc(OCCOCCO)nc(-c3cccc(Cl)c3)c2c1N [No 66, 5-Amino-4-(3-chloro-phenyl)-2-[2-(2-hydroxy-ethoxy)-ethoxy]-thieno[2,3-d]pyrimidine-6-carboxylic acid amide]
100 to 500	Cc1ccc(-c2nc(OCc3cccnc3)nc3sc(C(N)=O)c(N)c23)o1 [No 31, 5-Amino-4-(5-methyl-furan-2-yl)-2-(pyridin-3-ylmethoxy)-thieno[2,3-d]pyrimidine-6-carboxylic acid amide]
> 1000	NC(=O)c1sc2nc(OCC3CC3)nc(-c3cccc(C(F)(F)F)c3)c2c1N [No 14, 5-Amino-2-cyclopropylmethoxy-4-(3-trifluoromethyl-phenyl)-thieno[2,3-d]pyrimidine-6-carboxylic acid amide]
100 to 500	NC(=O)c1sc2nc(OC[C@@H]3CCC(=O)N3)nc(-c3cccc(Cl)c3)c2c1N [No 75, 5-Amino-4-(3-chloro-phenyl)-2-((S)-5-oxo-pyrrolidin-2-ylmethoxy)-thieno[2,3-d]pyrimidine-6-carboxylic acid amide]
< 100	Cc1cccc(-c2nc(OCc3cnn(C)c3)nc3sc(C(N)=O)c(N)c23)n1 [No 33, 5-Amino-2-(1-methyl-1H-pyrazol-4-ylmethoxy)-4-(6-methyl-pyridin-2-yl)-thieno[2,3-d]pyrimidine-6-carboxylic acid amide]
< 100	NC(=O)COc1nc(-c2cccc(Cl)c2)c2c(N)c(C(N)=O)sc2n1 [No 56, 5-Amino-2-carbamoylmethoxy-4-(3-chloro-phenyl)-thieno[2,3-d]pyrimidine-6-carboxylic acid amide]
100 to 500	CC(C)(CO)COc1nc(-c2cccc(Cl)c2)c2c(N)c(C(N)=O)sc2n1 [No 68, 5-Amino-4-(3-chloro-phenyl)-2-(3-hydroxy-2,2-dimethyl-propoxy)-thieno[2,3-d]pyrimidine-6-carboxylic acid amide]
100 to 500	NC(=O)c1sc2nc(O[C@H]3CNC(=O)C3)nc(-c3cccc(Cl)c3)c2c1N [No 63, 5-Amino-4-(3-chloro-phenyl)-2-((R)-5-oxo-pyrrolidin-3-yloxy)-thieno[2,3-d]pyrimidine-6-carboxylic acid amide]
< 100	NC(=O)c1sc2nc(OCCN3CCOC3=O)nc(-c3cccc(Cl)c3)c2c1N [No 57, 5-Amino-4-(3-chloro-phenyl)-2-[2-(2-oxo-oxazolidin-3-yl)-ethoxy]-thieno[2,3-d]pyrimidine-6-carboxylic acid amide]
100 to 500	COCc1cnn(CCOc2nc(-c3cccc(Cl)c3)c3c(N)c(C(N)=O)sc3n2)c1 [No 52, 5-Amino-4-(3-chloro-phenyl)-2-[2-(4-methoxymethyl-pyrazol-1-yl)-ethoxy]-thieno[2,3-d]pyrimidine-6-carboxylic acid amide]
100 to 500	COc1nc(-c2ccc(C)s2)c2c(N)c(C(N)=O)sc2n1 [No 23, 5-Amino-2-methoxy-4-(5-methyl-thiophen-2-yl)-thieno[2,3-d]pyrimidine-6-carboxylic acid amide]
100 to 500	COCCOc1nc(-c2cccc(Cl)c2)c2c(N)c(C(N)=O)sc2n1 [No 1, 5-Amino-4-(3-chloro-phenyl)-2-(2-methoxy-ethoxy)-thieno[2,3-d]pyrimidine-6-carboxylic acid amide]
< 100	Cn1cc(COc2nc(-c3cccc(Cl)c3)c3c(N)c(C(N)=O)sc3n2)cn1 [No 44, 5-Amino-4-(3-chloro-phenyl)-2-(1-methyl-1H-pyrazol-4-ylmethoxy)-thieno[2,3-d]pyrimidine-6-carboxylic acid amide]
100 to 500	NC(=O)c1sc2nc(OC3CCC(O)C3)nc(-c3cccc(Cl)c3)c2c1N (stereo not drawn) [No 64, 5-Amino-4-(3-chloro-phenyl)-2-(3-hydroxy-cyclopentyloxy)-thieno[2,3-d]pyrimidine-6-carboxylic acid amide]
< 100	NC(=O)c1sc2nc(OCC3CC3)nc(-c3cccc(Cl)c3)c2c1N [No 4, 5-Amino-4-(3-chloro-phenyl)-2-cyclopropylmethoxy-thieno[2,3-d]pyrimidine-6-carboxylic acid amide]
100 to 500	NC(=O)c1sc2nc(OCC3CCC3)nc(-c3cccc(Cl)c3)c2c1N [No 9, 5-Amino-4-(3-chloro-phenyl)-2-cyclobutylmethoxy-thieno[2,3-d]pyrimidine-6-carboxylic acid amide]
100 to 500	COc1nc(-c2cccc(C(F)(F)F)c2)c2c(N)c(C(N)=O)sc2n1 [No 5, 5-Amino-2-methoxy-4-(3-trifluoromethyl-phenyl)-thieno[2,3-d]pyrimidine-6-carboxylic acid amide]
< 100	Cn1ccc(COc2nc(-c3cccc(Cl)c3)c3c(N)c(C(N)=O)sc3n2)n1 [No 46, 5-Amino-4-(3-chloro-phenyl)-2-(1-methyl-1H-pyrazol-3-ylmethoxy)-thieno[2,3-d]pyrimidine-6-carboxylic acid amide]
> 1000	NC(=O)c1sc2nc(OCC3CCCC3)nc(-c3cccc(C(F)(F)F)c3)c2c1N [No 8, 5-Amino-2-cyclopentylmethoxy-4-(3-trifluoromethyl-phenyl)-thieno[2,3-d]pyrimidine-6-carboxylic acid amide]
100 to 500	Cc1ccc(-c2nc(O[C@@H](C)[C@H](C)O)nc3sc(C(N)=O)c(N)c23)o1 [No 36, 5-Amino-2-((1S,2S)-2-hydroxy-1-methyl-propoxy)-4-(5-methyl-furan-2-yl)-thieno[2,3-d]pyrimidine-6-carboxylic acid amide]
100 to 500	NC(=O)c1sc2nc(OC[C@H](O)CO)nc(-c3cccc(Cl)c3)c2c1N [No 50, 5-Amino-4-(3-chloro-phenyl)-2-((R)-2,3-dihydroxy-propoxy)-thieno[2,3-d]pyrimidine-6-carboxylic acid amide]
100 to 500	Cc1ccc(-c2nc(O[C@H](C)[C@@H](C)O)nc3sc(C(N)=O)c(N)c23)o1 [No 34, 5-Amino-2-((1R,2R)-2-hydroxy-1-methyl-propoxy)-4-(5-methyl-furan-2-yl)-thieno[2,3-d]pyrimidine-6-carboxylic acid amide]
< 100	NC(=O)c1sc2nc(OC/C=C/CO)nc(-c3cccc(Cl)c3)c2c1N [No 71, 5-Amino-4-(3-chloro-phenyl)-2-((E)-4-hydroxy-but-2-enyloxy)-thieno[2,3-d]pyrimidine-6-carboxylic acid amide]
< 100	NC(=O)c1sc2nc(OC/C=C\CO)nc(-c3cccc(Cl)c3)c2c1N [No 58, 5-Amino-4-(3-chloro-phenyl)-2-((Z)-4-hydroxy-but-2-enyloxy)-thieno[2,3-d]pyrimidine-6-carboxylic acid amide]
> 1000	Cc1ccc(-c2nc(OCCN3CCOCC3)nc3sc(C(N)=O)c(N)c23)o1 [No 20, 5-Amino-4-(5-methyl-furan-2-yl)-2-(2-morpholin-4-yl-ethoxy)-thieno[2,3-d]pyrimidine-6-carboxylic acid amide]
